According to PubChem BioAssay (NCI):
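Values below derive from 48-hour exposures of cells grown in 96-well plates, with endpoints linearly interpolated between the two concentrations bracketing the appropriate inhibition level. Abbreviation: GI50, concentration required for 50% inhibition of growth. TGI: concentration producing complete growth inhibition.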

How the values were obtained:
Test in all cases: NCI anticancer screen, dose series, 48 h
[1] = tested on: 786-0 renal
[2] = tested on: A549 NSCLC
[3] = tested on: CAKI-1 renal
[4] = tested on: HT29 colon
[5] = tested on: IGROV1 ovarian
[6] = tested on: MDA-MB-231 breast
[7] = tested on: MOLT-4 leukemia
[8] = tested on: NCI/ADR-RES ovarian
[9] = tested on: SF-295 CNS
[10] = tested on: SW-620 colon

Work on `CCCCCC(=O)N1c2ccccc2NC2=C(C(=O)CC(c3ccc(OC)c(OC)c3)C2)C1c1ccc(C(F)(F)F)cc1` (stereo not given) yielded a GI50 [1] of over 100 µM, a TGI [1] of over 100 µM and a GI50 [2] of over 100 µM. For the same compound, the TGI [2] was over 100 µM, the GI50 [3] was 35.6 µM and the TGI [3] was over 100 µM. For the same compound, the GI50 [4] was over 100 µM, the TGI [4] was over 100 µM and the GI50 [5] was over 100 µM. It also gave a TGI [5] of over 100 µM, a GI50 [6] of 20.4 µM and a TGI [6] of over 100 µM. The GI50 [7] was 8.9 µM, the TGI [7] was over 100 µM and the GI50 [8] was over 100 µM. For the same compound, the TGI [8] was over 100 µM, the GI50 [9] was over 100 µM and the TGI [9] was over 100 µM. For the same compound, the GI50 [10] was over 100 µM and the TGI [10] was over 100 µM.

For `COc1ccc(C2CC(=O)Nc3c2c(C)nn3-c2nc3ccccc3[nH]2)cc1` (stereo not given), the GI50 [1] was 3.82 µM, the TGI [1] was over 33.3 µM and the GI50 [2] was 3.04 µM. The TGI [2] was 15.1 µM, the GI50 [3] was 2.96 µM and the TGI [3] was 9.12 µM. The GI50 [4] was 3.47 µM, the TGI [4] was over 30.4 µM and the GI50 [5] was 2.38 µM. For the same compound, the TGI [5] was 5.26 µM, the GI50 [6] was 2.25 µM and the TGI [6] was 5.3 µM. The GI50 [7] was 0.0589 µM, the TGI [7] was 0.326 µM and the GI50 [8] was 5.61 µM. The TGI [8] was over 100 µM, the GI50 [9] was 1.7 µM and the TGI [9] was 4.19 µM. It also gave a GI50 [10] of 3.33 µM and a TGI [10] of 20.6 µM.

Compound `N#C/C(=C\c1cn(-c2ccccc2)c2ccccc12)C(=O)O` has a GI50 [1] of 61.2 µM, a TGI [1] of over 100 µM and a GI50 [2] of 42.9 µM. The TGI [2] was over 100 µM, the GI50 [3] was 63.1 µM and the TGI [3] was over 100 µM. It also gave a GI50 [4] of 53.1 µM, a TGI [4] of over 100 µM and a GI50 [5] of 49.3 µM. The TGI [5] was over 100 µM, the GI50 [6] was 44.2 µM and the TGI [6] was over 100 µM. For the same compound, the GI50 [7] was 72.8 µM, the TGI [7] was over 100 µM and the GI50 [8] was 57.7 µM. It also gave a TGI [8] of over 100 µM, a GI50 [9] of 28.1 µM and a TGI [9] of over 100 µM. For the same compound, the GI50 [10] was 48.3 µM and the TGI [10] was over 100 µM.

`Cc1ccc(NC(=O)c2ccnc(C(F)(F)F)c2)cc1-c1cc(OCCO)nc(N2CCOCC2)c1` was tested, and the GI50 [1] was 6.29 µM, the TGI [1] was 38.2 µM and the GI50 [2] was 3.21 µM. It also gave a TGI [2] of 28.9 µM, a GI50 [3] of 1.62 µM and a TGI [3] of 38.7 µM. The GI50 [4] was 0.413 µM, the TGI [4] was 14.8 µM and the GI50 [5] was 1.61 µM. The TGI [5] was 40 µM, the GI50 [6] was 0.688 µM and the TGI [6] was 17.5 µM. The GI50 [7] was 3.5 µM, the TGI [7] was over 100 µM and the GI50 [8] was 2.63 µM. It also gave a TGI [8] of 11.5 µM, a GI50 [9] of 3.57 µM and a TGI [9] of 17.6 µM. It also gave a GI50 [10] of 1.55 µM and a TGI [10] of 63.8 µM.

Compound `O=C(O)C(/C=C/c1ccco1)=N\Nc1nc(-c2ccc(Cl)cc2)cs1` has a GI50 [1] of 14.3 µM, a TGI [1] of over 50 µM and a GI50 [2] of 16 µM. The TGI [2] was over 50 µM, the GI50 [3] was 16.6 µM and the TGI [3] was over 50 µM. For the same compound, the GI50 [4] was 20.9 µM, the TGI [4] was over 50 µM and the GI50 [5] was 7.93 µM. It also gave a TGI [5] of 29.6 µM, a GI50 [6] of 14.7 µM and a TGI [6] of over 50 µM. For the same compound, the GI50 [7] was 8.62 µM, the TGI [7] was over 50 µM and the GI50 [8] was 12.4 µM. For the same compound, the TGI [8] was over 50 µM, the GI50 [9] was 0.842 µM and the TGI [9] was 4.23 µM. It also gave a GI50 [10] of 22.5 µM and a TGI [10] of over 50 µM.

For `CCOC(=O)c1cc2c(cc1Cl)SC(N(c1ccc(F)cc1)S(=O)(=O)c1ccc(OC)cc1)=NS2(=O)=O`, the GI50 [1] was 24.4 µM, the TGI [1] was 54.1 µM and the GI50 [2] was 22 µM. For the same compound, the TGI [2] was over 100 µM, the GI50 [3] was 20.2 µM and the TGI [3] was 48.7 µM. It also gave a GI50 [4] of 16.1 µM, a TGI [4] of 34.6 µM and a GI50 [5] of 37.7 µM. The TGI [5] was over 100 µM, the GI50 [6] was 19.2 µM and the TGI [6] was 53.5 µM. For the same compound, the GI50 [7] was 15.6 µM, the TGI [7] was 37.9 µM and the GI50 [8] was 21.2 µM. The TGI [8] was 42.1 µM, the GI50 [9] was 25.7 µM and the TGI [9] was 74.8 µM. It also gave a GI50 [10] of 15.9 µM and a TGI [10] of 30.6 µM.
